According to US12227500B2, “Substituted pyrrolo[2,3-b]pyridines for suppressing toxic endoplasmic reticulum stress” (THE TRUSTEES OF COLUMBIA UNIVERSITY IN THE CITY OF NEW YORK, priority 2018, dated 2025):
Like-named read-outs stand apart in the source and are kept apart here.

Assays:
[1] = biological target: T1, panel of 60 human kinases (Homo sapiens, UniProt P21802); test: Radiolabeled ATP kinase assay, panel of 60 kinases (Table S5); format: biochemical; conditions: FGFR2; 0.1 μM; 10 μM ATP; read-out: % Enzyme Activity (relative to DSMO controls)
T1 construct: purchased Reaction Biology Corp
Procedure: (§1) To better understand the biologically relevant targets of compound 1 and its analogs, a second round of cell-free kinase assays was performed. In this expanded assay, we selected ten analogs ranging from moderately to very strongly protective in the CPA assay. These analogs were evaluated for their ability to inhibit a selection of 60 kinases at 0.1 μM and 0.5 μM. […] RNAseq data were used to confirm the expression of each kinase in ES MNs (see Example 12).
(§2) RNAseq data were used to confirm the expression of each kinase in ES motor neurons (see Example 12).

[2] = biological target: T2, panel of 60 human kinases (Homo sapiens, UniProt P49759); test: as above; format: biochemical; conditions: CLK1; 0.1 μM; 10 μM ATP; read-out: % Enzyme Activity (relative to DSMO controls)
T2 construct: purchased Reaction Biology Corp
Procedure: as §1, §2

[3] = biological target: T3, panel of 60 human kinases (Homo sapiens, UniProt Q92918); test: as above; format: biochemical; conditions: HPK1/MAP4K1; 0.1 μM; 10 μM ATP; read-out: % Enzyme Activity (relative to DSMO controls)
T3 construct: purchased Reaction Biology Corp
Procedure: as §1, §2

[4] = biological target: T4, panel of 60 human kinases (Homo sapiens, UniProt O60285); test: as above; format: biochemical; conditions: ARK5/NUAK1; 0.1 μM; 10 μM ATP; read-out: % Enzyme Activity (relative to DSMO controls)
T4 construct: purchased Reaction Biology Corp
T4 sequence (O60285 1-661): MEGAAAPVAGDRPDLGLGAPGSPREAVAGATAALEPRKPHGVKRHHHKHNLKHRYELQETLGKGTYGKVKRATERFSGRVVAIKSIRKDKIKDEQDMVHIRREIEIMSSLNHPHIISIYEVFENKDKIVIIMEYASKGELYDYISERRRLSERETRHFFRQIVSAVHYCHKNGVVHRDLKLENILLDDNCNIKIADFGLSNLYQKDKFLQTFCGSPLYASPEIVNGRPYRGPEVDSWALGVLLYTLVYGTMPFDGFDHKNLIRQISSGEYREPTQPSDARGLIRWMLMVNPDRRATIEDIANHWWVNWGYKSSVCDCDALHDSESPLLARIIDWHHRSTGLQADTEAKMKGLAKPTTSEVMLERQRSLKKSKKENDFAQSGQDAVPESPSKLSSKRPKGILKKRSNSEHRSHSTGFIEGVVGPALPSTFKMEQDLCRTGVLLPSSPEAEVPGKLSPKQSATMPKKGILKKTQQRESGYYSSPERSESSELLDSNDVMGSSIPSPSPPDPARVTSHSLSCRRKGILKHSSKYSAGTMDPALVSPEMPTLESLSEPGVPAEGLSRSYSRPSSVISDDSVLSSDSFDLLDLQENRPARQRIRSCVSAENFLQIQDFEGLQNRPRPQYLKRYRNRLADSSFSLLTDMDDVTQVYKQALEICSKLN
Procedure: as §1, §2

[5] = biological target: T5, panel of 60 human kinases (Homo sapiens, UniProt Q9HAZ1); test: as above; format: biochemical; conditions: CLK4; 0.1 μM; 10 μM ATP; read-out: % Enzyme Activity (relative to DSMO controls)
T5 construct: purchased Reaction Biology Corp
Procedure: as §1, §2

[6] = biological target: T6, panel of 60 human kinases (Homo sapiens, UniProt Q9UM73); test: as above; format: biochemical; conditions: ALK; 0.1 μM; 10 μM ATP; read-out: % Enzyme Activity (relative to DSMO controls)
T6 construct: purchased Reaction Biology Corp
Procedure: as §1, §2

[7] = biological target: T7, panel of 60 human kinases (Homo sapiens, UniProt Q13164); test: as above; format: biochemical; conditions: 0.1 μM, 10 μM ATP, read-out: % Enzyme Activity (relative to DSMO controls)
T7 construct: purchased Reaction Biology Corp
Procedure: as §1, §2

[8] = biological target: T8, panel of 60 human kinases (Homo sapiens, UniProt Q00534); test: as above; format: biochemical; conditions: 0.1 μM, 10 μM ATP, read-out: % Enzyme Activity (relative to DSMO controls)
T8 construct: purchased Reaction Biology Corp
Procedure: as §1, §2

[9] = biological target: T9, panel of 60 human kinases (Homo sapiens, UniProt O15264); test: as above; format: biochemical; conditions: P38d/MAPK13; 0.1 μM; 10 μM ATP; read-out: % Enzyme Activity (relative to DSMO controls)
T9 construct: purchased Reaction Biology Corp
T9 sequence (O15264 1-365): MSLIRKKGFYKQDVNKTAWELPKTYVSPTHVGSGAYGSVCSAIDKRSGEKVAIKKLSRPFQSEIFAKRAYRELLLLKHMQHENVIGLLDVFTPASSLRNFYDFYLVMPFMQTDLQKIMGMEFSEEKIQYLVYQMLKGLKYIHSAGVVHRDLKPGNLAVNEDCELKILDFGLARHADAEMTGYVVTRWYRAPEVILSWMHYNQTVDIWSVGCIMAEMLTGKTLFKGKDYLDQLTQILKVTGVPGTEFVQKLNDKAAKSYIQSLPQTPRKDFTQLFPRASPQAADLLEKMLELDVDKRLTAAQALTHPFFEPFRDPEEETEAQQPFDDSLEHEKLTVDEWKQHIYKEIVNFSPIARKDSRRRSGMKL
Procedure: as §1, §2

MLK1/MAP3K9 = biological target: T10, MLK1/MAP3K9 (Homo sapiens, UniProt P80192); test: Radiolabeled ATP kinase assay (Reaction Biology Corp.), MLK1; format: biochemical; conditions: [Cmpd] 0.1 μM, 10 μM ATP
T10 construct: purchased Reaction Biology Corp
Procedure: (§3) Meanwhile, the same analogs were analyzed in a radiolabeled ATP assay (10 μM ATP; Reaction Biology Corp.) to compare the extent to which they could inhibit the activity of HGK, MLK1, or MLK3 in a cell-free environment (Table S3 and S4).

MLK3/MAP3K11 = biological target: T11, MLK3/MAP3K11 (Homo sapiens, UniProt Q16584); test: Radiolabeled ATP kinase assay (Reaction Biology Corp.), MLK3; format: biochemical; conditions: for % Enzyme Activity Remaining (relative to DMSO controls), MLK3/MAP3K11, Data 1 / % Enzyme Activity Remaining (relative to DMSO controls), MLK3/MAP3K11, Data 2: [Cmpd] 0.1 μM, 10 μM ATP
T11 construct: purchased Reaction Biology Corp
Procedure: as §3

[10] = test system: human ES motor neurons carrying the ALS-causing SOD1^A4V mutation; test: cells; format: cell-based; conditions: 72 h, 72 h; for EC50 / Emax: CPA 33 μM; for EC50: read-out: EC50; for viability at 1 µM: CPA (33 μM) + compound (1 μM), read-out: Motor Neuron Survival, % untreated; for Emax: read-out: Emax (MN survival % untreated)
Procedure: Next, survival assays were performed with all the analogs at once to generate a low-variability dataset. All compounds were evaluated at concentrations ranging from 0.1-3.0 μM (five-point dilution) in three technical replicates and two biological replicates.

HGK/MAP4K4 = HGK/MAP4K4 (Homo sapiens, UniProt O95819); test: Radiolabeled ATP kinase assay (Reaction Biology Corp.), HGK; format: biochemical; set-up: purchased Reaction Biology Corp; conditions: 10 μM ATP, read-out: % Enzyme Activity (relative to DMSO controls), HGK/MAP4K4, Data 1; for remaining activity at 0.025 µM: [Cmpd] 0.025 μM; for remaining activity at 0.1 µM: [Cmpd] 0.1 μM
Procedure: as §3

[11] = read-out: % Enzyme Activity Remaining (relative to DMSO controls), MLK1/MAP3K9, Data 1
[12] = read-out: % Enzyme Activity Remaining (relative to DMSO controls), MLK1/MAP3K9, Data 2

T8 sequence (Q00534 whole entry): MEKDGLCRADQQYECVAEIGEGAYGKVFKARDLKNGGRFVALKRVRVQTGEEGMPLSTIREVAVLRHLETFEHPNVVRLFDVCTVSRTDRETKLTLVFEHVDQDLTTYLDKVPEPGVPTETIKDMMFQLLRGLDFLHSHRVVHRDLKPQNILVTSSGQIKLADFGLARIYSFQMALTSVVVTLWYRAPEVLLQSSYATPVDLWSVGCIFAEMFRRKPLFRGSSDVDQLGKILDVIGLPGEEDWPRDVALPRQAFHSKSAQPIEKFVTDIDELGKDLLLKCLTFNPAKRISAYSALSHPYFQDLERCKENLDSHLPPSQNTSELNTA
T11 sequence (Q16584 whole entry): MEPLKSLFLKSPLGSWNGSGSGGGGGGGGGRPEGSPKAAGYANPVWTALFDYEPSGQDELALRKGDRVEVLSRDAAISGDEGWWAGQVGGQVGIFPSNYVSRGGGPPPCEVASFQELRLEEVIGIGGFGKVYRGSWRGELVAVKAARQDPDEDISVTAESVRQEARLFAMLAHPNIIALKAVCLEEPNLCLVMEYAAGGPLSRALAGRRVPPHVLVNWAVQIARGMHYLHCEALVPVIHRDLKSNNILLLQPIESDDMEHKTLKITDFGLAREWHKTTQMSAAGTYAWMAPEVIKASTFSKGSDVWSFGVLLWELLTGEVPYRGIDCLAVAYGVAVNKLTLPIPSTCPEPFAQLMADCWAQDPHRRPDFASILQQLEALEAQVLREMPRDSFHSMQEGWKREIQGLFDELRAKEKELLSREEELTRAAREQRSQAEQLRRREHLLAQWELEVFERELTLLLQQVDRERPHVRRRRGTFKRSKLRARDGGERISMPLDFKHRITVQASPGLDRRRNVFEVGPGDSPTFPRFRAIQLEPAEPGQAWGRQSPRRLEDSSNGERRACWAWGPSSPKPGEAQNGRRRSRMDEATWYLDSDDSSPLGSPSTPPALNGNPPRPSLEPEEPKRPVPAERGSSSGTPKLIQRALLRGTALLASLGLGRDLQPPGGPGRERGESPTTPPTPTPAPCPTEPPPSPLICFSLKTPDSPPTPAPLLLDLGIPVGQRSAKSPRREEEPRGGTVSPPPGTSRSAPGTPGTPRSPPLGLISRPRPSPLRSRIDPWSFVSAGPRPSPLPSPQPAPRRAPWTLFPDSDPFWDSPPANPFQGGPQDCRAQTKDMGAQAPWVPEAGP
T10 sequence (P80192 whole entry): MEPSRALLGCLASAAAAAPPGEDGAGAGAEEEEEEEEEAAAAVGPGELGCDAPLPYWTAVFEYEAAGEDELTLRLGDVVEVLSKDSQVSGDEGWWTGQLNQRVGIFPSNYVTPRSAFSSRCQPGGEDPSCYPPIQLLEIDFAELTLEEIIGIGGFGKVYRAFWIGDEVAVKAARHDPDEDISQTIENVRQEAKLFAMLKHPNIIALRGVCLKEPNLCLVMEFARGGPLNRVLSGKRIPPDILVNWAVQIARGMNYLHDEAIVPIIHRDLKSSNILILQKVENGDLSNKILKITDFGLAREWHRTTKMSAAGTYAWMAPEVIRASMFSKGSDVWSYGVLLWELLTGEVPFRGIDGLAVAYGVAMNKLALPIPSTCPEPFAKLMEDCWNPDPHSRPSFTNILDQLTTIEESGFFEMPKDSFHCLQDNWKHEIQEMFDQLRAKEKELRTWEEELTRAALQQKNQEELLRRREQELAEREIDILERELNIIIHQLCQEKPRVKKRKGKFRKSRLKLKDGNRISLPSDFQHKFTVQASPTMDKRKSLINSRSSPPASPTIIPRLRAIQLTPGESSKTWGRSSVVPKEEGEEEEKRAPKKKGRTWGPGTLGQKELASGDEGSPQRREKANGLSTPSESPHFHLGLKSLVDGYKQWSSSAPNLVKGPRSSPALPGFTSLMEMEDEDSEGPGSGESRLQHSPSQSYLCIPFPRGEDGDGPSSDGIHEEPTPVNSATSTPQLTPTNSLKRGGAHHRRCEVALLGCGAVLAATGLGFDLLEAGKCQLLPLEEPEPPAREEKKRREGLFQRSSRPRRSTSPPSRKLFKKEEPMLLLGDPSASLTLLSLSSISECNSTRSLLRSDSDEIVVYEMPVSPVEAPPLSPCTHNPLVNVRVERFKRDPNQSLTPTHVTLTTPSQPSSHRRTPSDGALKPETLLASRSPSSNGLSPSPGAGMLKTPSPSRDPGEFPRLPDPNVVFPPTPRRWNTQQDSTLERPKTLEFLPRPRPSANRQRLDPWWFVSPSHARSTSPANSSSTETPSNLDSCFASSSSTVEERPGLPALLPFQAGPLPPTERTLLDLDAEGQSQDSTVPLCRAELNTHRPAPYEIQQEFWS
T7 sequence (Q13164 whole entry): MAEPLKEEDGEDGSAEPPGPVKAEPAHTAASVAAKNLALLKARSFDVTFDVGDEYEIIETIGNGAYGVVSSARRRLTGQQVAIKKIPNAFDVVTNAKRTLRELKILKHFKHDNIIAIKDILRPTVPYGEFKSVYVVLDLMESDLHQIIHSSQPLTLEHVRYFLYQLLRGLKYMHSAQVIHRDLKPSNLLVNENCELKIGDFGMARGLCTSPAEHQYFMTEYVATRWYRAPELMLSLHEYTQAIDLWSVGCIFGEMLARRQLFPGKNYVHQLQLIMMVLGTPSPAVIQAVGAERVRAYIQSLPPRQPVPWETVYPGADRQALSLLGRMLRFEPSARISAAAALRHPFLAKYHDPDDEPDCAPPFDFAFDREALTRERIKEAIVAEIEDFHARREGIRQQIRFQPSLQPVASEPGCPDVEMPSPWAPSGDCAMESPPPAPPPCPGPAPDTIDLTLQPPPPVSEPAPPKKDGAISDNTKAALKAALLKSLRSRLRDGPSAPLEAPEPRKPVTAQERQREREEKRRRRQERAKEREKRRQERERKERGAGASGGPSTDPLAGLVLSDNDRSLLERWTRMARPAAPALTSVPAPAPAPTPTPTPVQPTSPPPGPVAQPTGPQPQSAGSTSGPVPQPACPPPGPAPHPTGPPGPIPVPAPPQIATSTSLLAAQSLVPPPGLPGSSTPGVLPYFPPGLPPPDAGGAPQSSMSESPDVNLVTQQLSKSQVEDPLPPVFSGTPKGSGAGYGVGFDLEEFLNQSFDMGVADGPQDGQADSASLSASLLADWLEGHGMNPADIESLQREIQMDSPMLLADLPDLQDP
T2 sequence (P49759 whole entry): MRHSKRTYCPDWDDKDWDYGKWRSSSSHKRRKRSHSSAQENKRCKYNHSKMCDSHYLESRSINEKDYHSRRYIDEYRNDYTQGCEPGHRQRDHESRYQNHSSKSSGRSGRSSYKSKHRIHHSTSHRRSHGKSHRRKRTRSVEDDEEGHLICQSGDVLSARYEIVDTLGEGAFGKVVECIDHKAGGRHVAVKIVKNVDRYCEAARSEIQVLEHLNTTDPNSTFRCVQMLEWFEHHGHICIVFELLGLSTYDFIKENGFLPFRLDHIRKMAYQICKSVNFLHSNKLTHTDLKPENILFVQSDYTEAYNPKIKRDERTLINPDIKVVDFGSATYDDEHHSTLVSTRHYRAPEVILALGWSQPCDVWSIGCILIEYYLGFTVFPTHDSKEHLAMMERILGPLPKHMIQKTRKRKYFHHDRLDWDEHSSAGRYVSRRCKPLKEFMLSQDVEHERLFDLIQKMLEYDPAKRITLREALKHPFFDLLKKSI
T3 sequence (Q92918 whole entry): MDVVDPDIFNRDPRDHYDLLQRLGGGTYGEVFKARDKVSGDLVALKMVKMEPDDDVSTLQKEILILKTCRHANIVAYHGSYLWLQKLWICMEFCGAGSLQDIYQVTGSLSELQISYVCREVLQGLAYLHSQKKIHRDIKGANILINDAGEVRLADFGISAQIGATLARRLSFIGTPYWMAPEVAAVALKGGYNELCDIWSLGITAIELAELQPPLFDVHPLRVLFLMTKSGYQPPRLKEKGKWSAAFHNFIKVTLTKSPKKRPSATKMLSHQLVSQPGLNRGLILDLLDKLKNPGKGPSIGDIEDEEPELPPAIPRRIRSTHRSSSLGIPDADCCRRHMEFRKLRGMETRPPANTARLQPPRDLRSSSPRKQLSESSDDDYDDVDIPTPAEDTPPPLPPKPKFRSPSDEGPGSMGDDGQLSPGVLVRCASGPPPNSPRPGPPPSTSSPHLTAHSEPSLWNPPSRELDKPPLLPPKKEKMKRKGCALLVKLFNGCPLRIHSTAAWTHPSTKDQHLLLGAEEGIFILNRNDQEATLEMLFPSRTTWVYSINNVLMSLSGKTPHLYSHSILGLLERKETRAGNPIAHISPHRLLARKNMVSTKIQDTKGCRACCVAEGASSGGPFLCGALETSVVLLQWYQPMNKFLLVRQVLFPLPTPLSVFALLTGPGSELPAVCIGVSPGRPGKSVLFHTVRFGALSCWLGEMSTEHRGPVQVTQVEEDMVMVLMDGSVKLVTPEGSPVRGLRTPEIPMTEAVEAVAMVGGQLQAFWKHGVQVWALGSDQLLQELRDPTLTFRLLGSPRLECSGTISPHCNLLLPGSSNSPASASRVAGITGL
T5 sequence (Q9HAZ1 whole entry): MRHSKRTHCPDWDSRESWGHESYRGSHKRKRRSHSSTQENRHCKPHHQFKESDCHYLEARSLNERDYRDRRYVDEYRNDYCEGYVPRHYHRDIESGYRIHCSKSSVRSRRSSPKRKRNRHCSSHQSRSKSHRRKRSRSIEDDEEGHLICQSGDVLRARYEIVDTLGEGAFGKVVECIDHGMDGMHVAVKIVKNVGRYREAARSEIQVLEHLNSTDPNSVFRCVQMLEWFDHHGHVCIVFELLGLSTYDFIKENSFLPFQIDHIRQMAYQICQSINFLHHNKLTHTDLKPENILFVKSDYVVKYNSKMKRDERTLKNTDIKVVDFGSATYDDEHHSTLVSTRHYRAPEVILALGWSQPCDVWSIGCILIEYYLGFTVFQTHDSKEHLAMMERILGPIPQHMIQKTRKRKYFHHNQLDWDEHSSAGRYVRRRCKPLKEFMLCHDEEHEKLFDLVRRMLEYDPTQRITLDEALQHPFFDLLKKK

Row | SMILES | remaining activity at 0.1 µM [1] [%] | remaining activity at 0.1 µM [2] [%] | remaining activity at 0.1 µM [3] [%] | remaining activity at 0.1 µM [4] [%] | remaining activity at 0.1 µM [5] [%] | remaining activity at 0.1 µM [6] [%] | remaining activity at 0.1 µM ([7]; ERK5/MAPK7 (CD)) [%] | remaining activity at 0.1 µM ([7]; ERK5/MAPK7) [%] | remaining activity at 0.1 µM ([8]; CDK6/cyclin D1) [%] | remaining activity at 0.1 µM ([8]; CDK6/cyclin D3) [%] | remaining activity at 0.1 µM [9] [%] | remaining activity at 0.1 µM (MLK1/MAP3K9; [11]) [%] | remaining activity at 0.1 µM (MLK1/MAP3K9; [12]) [%] | EC50 ([10]; Homo sapiens, Neuron) [µM] | viability at 1 µM ([10]; Homo sapiens, Neuron) [%] | Emax ([10]; Homo sapiens, Neuron) [%] | remaining activity at 0.025 µM (HGK/MAP4K4) [%] | remaining activity at 0.1 µM (HGK/MAP4K4) [%] | % Enzyme Activity Remaining (relative to DMSO controls), MLK3/MAP3K11, Data 1 (MLK3/MAP3K11) [%] | % Enzyme Activity Remaining (relative to DMSO controls), MLK3/MAP3K11, Data 2 (MLK3/MAP3K11) [%] | further results
1 | CN1CCN(Cc2ccc(-c3cnc4[nH]cc(-c5ccc6[nH]ccc6c5)c4c3)cc2)CC1 [Compound 1, 3-(1H-Indol-5-yl)-5-(4-((4-methylpiperazin-1-yl)methyl)phenyl)-1H-pyrrolo[2,3-b]pyridine, reference compound] | 52.9 | 33 | 24 | 5.96 | 59.2 | 25.4 | 87.5 | 109 | 47.2 | 66.1 | 112 | 16.2 | 14.2 | 0.215 | 102 | 102 | 18.5 | 5.23 | – | – | remaining activity at 0.1 µM (MLK3/MAP3K11; 0.1 μM): 10.5%
2 | CN1CCN(Cc2ccc(-c3cnc4[nH]cc(-c5cccc(Cl)c5)c4c3)cc2)CC1 [Compound 7ad, 3-(3-Chlorophenyl)-5-(4-((4-methylpiperazin-1-yl)methyl)phenyl)-1H-pyrrolo[2,3-b]pyridine] | 77.6 | 81.2 | 62.5 | 22.4 | 87.8 | 108 | 93.9 | 109 | 45.8 | 58.8 | 119 | 61.9 | 63.6 | 0.285 | 87.7 | 87.7 | 8.51 | 2.92 | 37.50 | 38.21 | –
3 | CN1CCN(Cc2ccc(-c3cnc4[nH]cc(-c5cnn(Cc6ccccc6)c5)c4c3)cc2)CC1 [Compound 7ah, 3-(1-Benzyl-1H-pyrazol-4-yl)-5-(4-((4-methylpiperazin-1-yl)methyl)phenyl)-1H-pyrrolo[2,3-b]pyridine] | 73.8 | 3.41 | 17.8 | 0.03 | 21.8 | 28.8 | 52.1 | 105 | 28.6 | 33.2 | 109 | 51.1 | 48.2 | 0.234 | 67.1 | 67.1 | 42.8 | 3.56 | 32.02 | 32.11 | –
4 | Cc1nn(C)c(C)c1-c1c[nH]c2ncc(-c3ccc(CN4CCN(C)CC4)cc3)cc12 [Compound 7ai, 5-(4-((4-Methylpiperazin-1-yl)methyl)phenyl)-3-(1,3,5-trimethyl-1H-pyrazol-4-yl)-1H-pyrrolo[2,3-b]pyridine] | 80.9 | 66.4 | 67.8 | 21.6 | 78.5 | 76.2 | 86 | 101 | 47.9 | 76 | 106 | 93.3 | 90.5 | 3.23 | – | 86.5 | 105 | 106 | 93.11 | 88.00 | –
5 | OCCN1CCN(Cc2ccc(-c3cnc4[nH]cc(-c5cccc(Cl)c5)c4c3)cc2)CC1 [Compound 12k, 2-(4-(4-(3-(3-Chlorophenyl)-1H-pyrrolo[2,3-b]pyridin-5-yl)benzyl)piperazin-1-yl)ethan-1-ol] | – | – | – | – | – | – | – | – | – | – | – | – | – | 0.099 | – | 112 | – | – | – | – | EC50 [10]: 0.1 µM
